We go through two molecules from patent US7973075B2, “Kainate receptor-selective epimeric analogs of dysiherbaine” (priority 2007, dated 2011).

The target of assay [1] is T1, GluR4(i) AMPA receptors (Rattus norvegicus, UniProt P19493).
T1 construct: expressed in transfected cells; host or cells: HEK-293-T/17
Nature of the assay: Whole-cell patch clamp recordings, transfected HEK-293-T/17 cells, Example 2. Format: cell-based. Particulars: 300 μM analog. The procedure:
Cell Culture and Electrophysiology. HEK-293-T/17 cells were maintained in Dulbecco's modified Eagle's medium (DMEM) supplemented with 100 μg/mL penicillin, 100 μg/mL streptomycin, and 10% heat inactivated fetal bovine serum. One day before transfection, HEK-T/17 cells were plated at low density on glass coverslips coated with 100 μg/ml poly-D-lysine and 100 μg/ml collagen. Cells were transfected with receptor cDNAs ([…]) in combination with enhanced green fluorescent protein (eGFP) cDNA for visualization of transfected cells. Transfections were carried out with Fugene6 (Roche Applied Science) according to the manufacturer's protocol and used 2-3 days following transfection. Internal solution consisted of 110 mM CsF, 30 mM CsCl, 4 mM NaCl, 0.5 mM CaCl2, 10 mM HEPES, and 5 mM EGTA, and was adjusted to pH=7.3 with CsOH. The external solution contained 150 mM NaCl, 2.8 mM KCI, 2 mM CaCl2, 1 mM MgCl2, and 10 mM HEPES, adjusted to pH=7.3 with NaOH. Patch electrodes from thick-walled borosilicate glass (Warner Instruments, Hamden, Conn.) were pulled to a final resistance of 1.5 to 2.5 MO after fire polishing. […] To determine the pre-desensitization IC50 of selected analogs, several control glutamate (10 mM) applications were followed by a 2.5 minute application of various concentrations of 8-deoxy-neoDH, 9-deoxy-neoDH, or MSVIII-19, after which the analogs were co-applied with glutamate. A similar protocol was followed to measure the recovery of glutamate-evoked currents, with the exception that the analogs were not co-applied with glutamate. Whole cell patch clamp recordings were carried out using an Axopatch 200B amplifier (Axon Instruments). Data were analyzed with Origin 7.5 (OriginLab Corp.), and Prism4 (GraphPad Software Inc.); inhibition-response curves were plotted and fit with a one-site competition curve constrained to fixed minima (0) and maxima (100).
The pharmacological activities of the C2/C4 epimers were determined in patch-clamp assays with GluR5-2a or GluR6a KARs as well as GluR4(i) AMPA receptors.
30 μM 2,4-epi-neoDH reduced glutamate-induced currents from GluR5-2a receptors by −70% while the same concentration reduced glutamate-induced currents from GluR6a receptors by −30% (FIG. 13A). […] We noted that the data derived from recording of the GluR5-2a receptor was poorly fit by the single component logistic curve, particularly at the lower concentrations. This inconsistency may arise from inter-subunit or inter-dimer cooperativity in the inhibitory activity or may be an apparent artifact resulting from run-down of the GluR5-2a receptor currents.

The target of assay [2] is T2, GluR6 (Rattus norvegicus, UniProt P42260).
T2 construct: expressed in transfected cells; HEK 293 (patch clamp)
As to conditions: Table 1; comparison value of MSVIII-19 (Sanders et al., 2005); read-out: GluR6 binding affinity (displacement of [3H]kainate); cited from earlier work.

Assay [3] addresses T3, KA2 (Rattus norvegicus, UniProt Q63273).
T3 construct: expressed in transfected cells; host or cells: HEK-293-T/17
T3 sequence (Q63273 15-979): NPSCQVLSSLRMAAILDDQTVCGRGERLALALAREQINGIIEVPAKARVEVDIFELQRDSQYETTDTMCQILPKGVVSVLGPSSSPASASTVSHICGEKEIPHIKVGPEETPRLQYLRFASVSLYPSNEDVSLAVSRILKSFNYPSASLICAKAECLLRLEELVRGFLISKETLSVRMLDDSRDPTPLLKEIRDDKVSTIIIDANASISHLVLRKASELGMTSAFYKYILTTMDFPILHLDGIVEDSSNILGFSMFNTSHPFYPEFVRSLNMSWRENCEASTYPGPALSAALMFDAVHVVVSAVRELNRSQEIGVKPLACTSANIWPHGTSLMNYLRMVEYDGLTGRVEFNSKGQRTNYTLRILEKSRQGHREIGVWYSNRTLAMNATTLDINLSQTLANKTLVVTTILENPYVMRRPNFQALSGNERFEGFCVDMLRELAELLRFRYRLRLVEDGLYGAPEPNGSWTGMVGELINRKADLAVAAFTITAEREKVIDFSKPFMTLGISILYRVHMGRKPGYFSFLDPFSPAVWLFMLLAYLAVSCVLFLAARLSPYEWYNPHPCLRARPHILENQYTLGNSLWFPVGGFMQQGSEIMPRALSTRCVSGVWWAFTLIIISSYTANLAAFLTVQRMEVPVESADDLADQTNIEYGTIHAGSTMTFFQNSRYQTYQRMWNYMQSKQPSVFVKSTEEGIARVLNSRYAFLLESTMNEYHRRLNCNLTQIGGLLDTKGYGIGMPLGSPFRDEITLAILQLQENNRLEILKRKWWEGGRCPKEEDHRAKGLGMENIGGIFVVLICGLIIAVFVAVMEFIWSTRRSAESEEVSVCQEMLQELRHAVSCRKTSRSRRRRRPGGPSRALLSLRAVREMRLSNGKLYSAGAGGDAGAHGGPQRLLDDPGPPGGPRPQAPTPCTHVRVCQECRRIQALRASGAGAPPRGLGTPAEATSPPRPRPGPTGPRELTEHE
As to conditions: Tables 1-2; comparison values of neoDH and MSVIII-19 (Sanders et al., 2005); cited from earlier work.

Assay [4] addresses T4, GluR2 (Rattus norvegicus, UniProt P19491).
T4 construct: expressed in transfected cells; host or cells: COS-7 or HEK-T/17
Particulars: Table 1; comparison value of MSVIII-19 (Sanders et al., 2005); read-out: GluR2 binding affinity (displacement of [3H]AMPA); cited from earlier work. Background: In a radioligand displacement assay an active substance lowers the binding of a labelled ligand.

In assay [5] the target is T5, GluR5-2a (Rattus norvegicus, UniProt P22756, DEL402-416).
T5 construct: expressed in transfected cells; host or cells: HEK-293-T/17
As to conditions: Sanders et al., 2005; cited from earlier work.

Assay [6] has as its target T6, GluR6a (Rattus norvegicus, UniProt P42260).
T6 construct: expressed in transfected cells; host or cells: HEK-293-T/17
Particulars: Sanders et al., 2005; cited from earlier work.

The target in assay [7] is T3, KA2. As to conditions: Sanders et al., 2005; cited from earlier work.
In assay [8] the target is T7, GluR2(i) (Rattus norvegicus, UniProt P19491).
T7 construct: expressed in transfected cells; host or cells: HEK-293-T/17
Particulars: Sanders et al., 2005; cited from earlier work.

T6 sequence (P42260 32-908): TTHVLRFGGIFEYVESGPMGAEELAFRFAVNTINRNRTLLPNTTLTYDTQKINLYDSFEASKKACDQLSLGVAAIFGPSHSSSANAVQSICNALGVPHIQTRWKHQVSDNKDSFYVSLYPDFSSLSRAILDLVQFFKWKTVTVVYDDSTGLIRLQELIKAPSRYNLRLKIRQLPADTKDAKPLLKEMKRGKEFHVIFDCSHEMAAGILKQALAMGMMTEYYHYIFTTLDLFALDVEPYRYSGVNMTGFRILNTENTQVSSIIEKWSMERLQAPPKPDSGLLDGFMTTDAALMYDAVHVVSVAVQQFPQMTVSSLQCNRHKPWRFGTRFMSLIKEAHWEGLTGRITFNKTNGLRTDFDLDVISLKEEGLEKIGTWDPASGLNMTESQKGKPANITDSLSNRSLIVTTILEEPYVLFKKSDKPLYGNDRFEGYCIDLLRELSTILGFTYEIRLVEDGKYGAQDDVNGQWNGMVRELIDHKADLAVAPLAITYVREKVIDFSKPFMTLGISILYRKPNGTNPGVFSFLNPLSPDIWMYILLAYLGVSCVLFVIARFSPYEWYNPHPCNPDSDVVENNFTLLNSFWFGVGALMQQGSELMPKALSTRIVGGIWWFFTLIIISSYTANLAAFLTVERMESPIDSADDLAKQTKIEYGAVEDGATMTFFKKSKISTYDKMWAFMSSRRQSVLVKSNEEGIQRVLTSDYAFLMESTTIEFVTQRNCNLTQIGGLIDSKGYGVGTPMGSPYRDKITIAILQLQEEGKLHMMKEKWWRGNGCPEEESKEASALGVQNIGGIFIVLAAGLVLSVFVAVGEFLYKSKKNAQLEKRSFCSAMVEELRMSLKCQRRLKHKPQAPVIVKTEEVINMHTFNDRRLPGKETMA
T2 sequence (P42260 32-908): as above
T1 sequence (P19493 22-902 isoform P19493-2 limits assumed): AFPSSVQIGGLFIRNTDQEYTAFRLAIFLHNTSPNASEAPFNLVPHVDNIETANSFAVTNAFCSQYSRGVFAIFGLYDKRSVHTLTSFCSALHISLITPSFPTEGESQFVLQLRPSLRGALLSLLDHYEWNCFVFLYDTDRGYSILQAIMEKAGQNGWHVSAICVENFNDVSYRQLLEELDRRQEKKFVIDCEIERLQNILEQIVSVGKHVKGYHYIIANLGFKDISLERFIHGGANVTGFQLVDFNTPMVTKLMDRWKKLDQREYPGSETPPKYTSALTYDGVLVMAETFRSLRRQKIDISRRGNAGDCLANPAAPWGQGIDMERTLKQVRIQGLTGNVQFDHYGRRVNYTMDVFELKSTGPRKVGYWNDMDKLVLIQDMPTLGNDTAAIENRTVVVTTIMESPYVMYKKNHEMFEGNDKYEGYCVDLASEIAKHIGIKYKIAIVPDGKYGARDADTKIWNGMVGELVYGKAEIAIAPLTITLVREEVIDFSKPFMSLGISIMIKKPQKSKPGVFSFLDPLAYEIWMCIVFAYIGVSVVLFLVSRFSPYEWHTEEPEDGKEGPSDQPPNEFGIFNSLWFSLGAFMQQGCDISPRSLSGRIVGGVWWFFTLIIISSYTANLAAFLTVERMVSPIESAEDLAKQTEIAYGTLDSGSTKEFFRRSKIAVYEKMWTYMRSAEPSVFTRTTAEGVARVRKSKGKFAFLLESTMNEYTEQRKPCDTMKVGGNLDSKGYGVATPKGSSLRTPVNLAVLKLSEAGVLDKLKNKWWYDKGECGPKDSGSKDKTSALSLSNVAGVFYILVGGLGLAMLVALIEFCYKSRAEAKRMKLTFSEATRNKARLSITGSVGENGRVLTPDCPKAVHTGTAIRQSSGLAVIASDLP
T4 sequence (P19491 22-883 isoform P19491-2 limits assumed): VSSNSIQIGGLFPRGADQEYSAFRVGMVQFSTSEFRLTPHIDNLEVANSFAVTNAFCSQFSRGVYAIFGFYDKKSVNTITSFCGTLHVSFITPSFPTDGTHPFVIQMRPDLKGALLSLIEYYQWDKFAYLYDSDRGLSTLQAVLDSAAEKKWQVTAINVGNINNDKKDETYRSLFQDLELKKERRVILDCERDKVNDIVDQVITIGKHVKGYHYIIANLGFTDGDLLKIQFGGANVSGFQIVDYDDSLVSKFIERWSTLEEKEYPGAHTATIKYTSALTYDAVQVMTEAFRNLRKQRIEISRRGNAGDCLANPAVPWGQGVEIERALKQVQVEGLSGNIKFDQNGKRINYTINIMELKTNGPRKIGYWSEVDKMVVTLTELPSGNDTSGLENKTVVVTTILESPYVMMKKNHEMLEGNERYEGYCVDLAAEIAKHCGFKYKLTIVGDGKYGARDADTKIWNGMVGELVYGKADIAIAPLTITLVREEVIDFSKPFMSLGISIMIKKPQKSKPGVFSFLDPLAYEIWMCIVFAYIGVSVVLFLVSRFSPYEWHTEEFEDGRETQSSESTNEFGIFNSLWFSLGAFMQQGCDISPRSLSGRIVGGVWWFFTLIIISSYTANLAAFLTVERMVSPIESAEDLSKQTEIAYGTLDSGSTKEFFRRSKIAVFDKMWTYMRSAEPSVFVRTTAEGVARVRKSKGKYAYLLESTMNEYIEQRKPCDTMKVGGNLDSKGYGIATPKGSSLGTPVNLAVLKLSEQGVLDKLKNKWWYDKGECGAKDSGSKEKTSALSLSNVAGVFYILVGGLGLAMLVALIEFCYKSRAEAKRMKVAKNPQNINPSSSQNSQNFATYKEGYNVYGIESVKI
T7 sequence (P19491 22-883 isoform P19491-2 limits assumed): as above
T5 sequence (P22756 with tags, fused parts or gaps isoform P22756-2 limits assumed, stated change not applied): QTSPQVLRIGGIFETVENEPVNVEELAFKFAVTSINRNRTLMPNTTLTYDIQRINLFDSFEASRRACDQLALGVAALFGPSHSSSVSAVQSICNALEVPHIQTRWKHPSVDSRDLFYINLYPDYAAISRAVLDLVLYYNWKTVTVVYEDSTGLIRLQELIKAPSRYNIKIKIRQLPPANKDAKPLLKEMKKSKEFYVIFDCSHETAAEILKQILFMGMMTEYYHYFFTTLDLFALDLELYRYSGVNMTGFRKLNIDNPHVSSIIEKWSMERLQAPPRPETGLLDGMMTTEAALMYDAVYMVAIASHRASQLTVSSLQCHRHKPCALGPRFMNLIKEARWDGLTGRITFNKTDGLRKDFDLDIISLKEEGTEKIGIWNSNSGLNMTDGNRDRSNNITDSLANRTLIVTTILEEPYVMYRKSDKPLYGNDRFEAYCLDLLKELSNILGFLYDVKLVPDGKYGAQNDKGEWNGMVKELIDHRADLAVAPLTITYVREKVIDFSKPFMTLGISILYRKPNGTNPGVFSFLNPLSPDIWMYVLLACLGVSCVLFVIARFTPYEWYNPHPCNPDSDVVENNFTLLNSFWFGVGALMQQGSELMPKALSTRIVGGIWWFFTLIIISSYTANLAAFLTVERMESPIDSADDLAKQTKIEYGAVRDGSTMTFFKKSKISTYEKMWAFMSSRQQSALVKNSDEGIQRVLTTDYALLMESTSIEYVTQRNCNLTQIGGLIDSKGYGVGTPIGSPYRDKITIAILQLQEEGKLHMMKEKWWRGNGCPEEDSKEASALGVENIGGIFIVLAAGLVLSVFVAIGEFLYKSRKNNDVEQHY

Consider `N[C@@H](C[C@@]1(C(=O)O)CC2OCC(O)C(O)C2O1)C(=O)O` (single isomer, unassigned) [2,4-epi-neoDH, 2,4-epi-neodysiherbaine], for which the “inhibition of currents from GluR4(i) receptors” value in assay [1] was “failed to inhibit”.
Consider `N[C@@H](C[C@]1(C(=O)O)C[C@H]2OCCC[C@H]2O1)C(=O)O` [MSVIII-19, 8,9-dideoxy-neoDH], for which the Ki was > 100 µM in assay [2]; > 100 µM in assay [4]; 0.128 µM in assay [5]; > 100 µM in assay [6]; > 100 µM in assay [8]. Besides, the “KA2 binding affinity (displacement of [3H]kainate)” value in assay [3] was >100 µM. Further, in assay [7], the “Ki KA2” value was >100 µM.
